Laboratory results taken from patent US20250195521A1 (Revolution Medicines, Inc., priority 2020, published 2025).
Values joined by “and” are separate entries in the source; they are usually repeats but may differ in a detail not shown here. Equal values may be shown once. Read-outs that look alike come from different tables or passages of the source.

How the values were obtained:
[1] = target: K-Ras G12C(GMP-PNP) binding to BRAF RBD (Homo sapiens (Human), UniProt P01116+P62937, G12C); experiment: Disruption of BRAF RBD interaction with K-Ras (FRET / MOA assay), K-Ras G12C; assay type: biochemical
Description: Note—The following protocol describes a procedure for monitoring disruption of K-Ras G12C(GMP-PNP) binding to BRAF^RBD by a compound of the invention. This protocol may also be executed substituting other Ras proteins or nucleotides.
The purpose of this biochemical assay was to measure the ability of test compounds to facilitate ternary complex formation between a nucleotide-loaded K-Ras isoform and Cyclophilin A; the resulting ternary complex disrupts binding to a BRAF^RBD construct, inhibiting K-Ras signaling through a RAF effector. Data is reported as IC50 values.
Compound was present in plate wells as a 10-point 3-fold dilution series starting at a final concentration of 30 μM. After incubation at 25° C. for 3 hours, a mixture of Anti-His Eu—W1024 and anti-GST allophycocyanin was then added to assay sample wells at final concentrations of 10 nM and 50 nM, respectively, and the reaction incubated for an additional 1.5 hours. […] Compounds that facilitate disruption of a K-Ras: RAF complex were identified as those eliciting a decrease in the TR-FRET ratio relative to DMSO control wells.

NCI-H358 (K-Ras G12C) = experiment: CellTiter-Glo cell viability assay, NCI-H358; assay type: cell-based, human; conditions: Homo sapiens, NCI-H358, 120 h, 5-day treatment; read-out: H358 Cell Viability assay data (K-Ras G12C, IC50)
Procedure, shortened: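 Viability is measured as ATP-dependent luminescence (CellTiter-Glo) five days into compound treatment. Responses are normalized to vehicle (DMSO) wells and fitted by four-parameter logistic regression.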

[2] = system: K-Ras G12C (NCI-H358 cells); experiment: Potency assay: pERK in NCI-H358 cells; assay type: cell-based, human; conditions: NCI-H358 cells, 4 hours, read-out: pERK EC50 (H358 KRAS G12C)
Procedure, shortened: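 Cells plated the day before were exposed for 4 h at 37° C, 5% CO2 to a 10-point, 3-fold DMSO dilution series (10 mM top stock), in duplicate. Phospho-ERK was read by AlphaLISA SureFire Ultra or by In-Cell Western with DRAQ5 DNA stain, and IC50 came from a 4-parameter sigmoidal fit.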

[3] = system: Capan-1 cells (K-Ras G12V); experiment: CellTiter-Glo cell viability, Capan-1; assay type: cell-based, human; conditions: Homo sapiens, CAPAN-1, 120 h, K-Ras G12V, 5-day treatment; read-out: Capan-1 Cell Viability IC50
Procedure, shortened: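 Viability is read as luminescence after five days of compound exposure, with plates first equilibrated to room temperature for roughly 30 minutes. Each signal is expressed as a percentage of the mean DMSO control, and curves are fitted by four-parameter logistic regression.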

KRAS G12D = KRAS G12D (Homo sapiens (Human), UniProt P01116+P62937, G12D); experiment: Ras-Raf disruption/FRET/MOA assay (BRAF RBD, Cyclophilin A); assay type: biochemical; conditions: read-out: KRAS G12D FRET IC50
Procedure, shortened: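 TR-FRET read after 1.5 h with 10 nM anti-His Eu-W1024 and 50 nM anti-GST APC, following 3 h at 25 °C of GMPPNP-loaded His6-Ras (12.5 nM), GST-BRAF RBD (50 nM) and Cyclophilin A (25 μM) with compound from 30 μM final, 10 points, 3-fold. IC50 reported; pH 7.3 HEPES, 100 mM NaCl.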

K-Ras G12C(GMP-PNP) binding to BRAF RBD, sequence (P01116 other isoform, or with tags, fused parts or gaps G12C): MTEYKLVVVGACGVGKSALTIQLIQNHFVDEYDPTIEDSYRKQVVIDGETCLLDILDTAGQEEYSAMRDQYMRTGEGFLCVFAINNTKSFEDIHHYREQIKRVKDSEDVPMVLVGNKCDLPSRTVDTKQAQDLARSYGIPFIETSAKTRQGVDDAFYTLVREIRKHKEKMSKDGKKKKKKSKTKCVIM
K-Ras G12C(GMP-PNP) binding to BRAF RBD, sequence (P62937 whole entry): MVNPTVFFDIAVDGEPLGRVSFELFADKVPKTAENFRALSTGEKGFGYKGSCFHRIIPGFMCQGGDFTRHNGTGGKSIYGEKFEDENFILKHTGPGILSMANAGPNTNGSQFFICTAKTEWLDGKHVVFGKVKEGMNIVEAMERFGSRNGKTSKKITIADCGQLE
KRAS G12D, sequence (P01116 other isoform, or with tags, fused parts or gaps G12D): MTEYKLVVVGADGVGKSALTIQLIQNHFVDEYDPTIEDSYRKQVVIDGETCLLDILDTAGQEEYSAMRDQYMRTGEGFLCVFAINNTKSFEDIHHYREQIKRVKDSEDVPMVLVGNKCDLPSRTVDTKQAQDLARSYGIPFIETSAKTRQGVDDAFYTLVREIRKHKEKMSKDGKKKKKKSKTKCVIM
KRAS G12D, sequence (P62937 whole entry): as the sequence (P62937 whole entry) above

SMILES	IC50 ([1]; read-out: KRAS G12C FRET IC50)	IC50 (NCI-H358 (K-Ras G12C)) [nM]	further results
CCn1c(-c2cccnc2[C@H](C)OC)c2c3cc(ccc31)-c1csc(n1)C[C@H](NC(=O)[C@H](C(C)C)N(C)C(=O)N1CC([C@@H](C)CO)C1)C(=O)N1CCC[C@H](N1)C(=O)OCC(C)(C)C2 (single isomer, unassigned) [Compound A487]	100 to 1000 nM	10 to 100	–
CCn1c(-c2cccnc2[C@H](C)OC)c2c3cc(ccc31)-c1cc(O)cc(c1)C[C@H](NC(=O)[C@H](C(C)C)N(C)C(=O)[C@H]1CCN(C)C1)C(=O)N1CCC[C@H](N1)C(=O)OCC(C)(C)C2 [Compound A100]	1000 to 10000 nM	–	–
CCn1c(-c2cccnc2[C@H](C)OC)c2c3cc(ccc31)-c1csc(n1)C[C@H](NC(=O)[C@H](C(C)C)N(C)C(=O)[C@H]1CCN(C(=O)CN)C1)C(=O)N1CCC[C@H](N1)C(=O)OCC(C)(C)C2 [Compound A106]	1000 to 10000 nM	–	–
CCn1c(-c2cccnc2[C@H](C)OC)c2c3cc(ccc31)-c1cccc(c1)C[C@H](NC(=O)[C@H](C(C)C)N(C)C(=O)[C@H]1CCN(C(=O)C(C)(C)N(C)C)C1)C(=O)N1CCC[C@H](N1)C(=O)OCC(C)(C)C2 [Compound A112]	100 to 1000 nM and < 10 nM	–	EC50 ([2]; Homo sapiens): < 5000 nM
CCn1c(-c2cccnc2[C@H](C)OC)c2c3cc(ccc31)-c1cc(O)cc(c1)C[C@H](NC(=O)[C@H](C(C)C)N(C)C(=O)[C@H]1CCN(C(=O)OC(C)C)C1)C(=O)N1CCC[C@H](N1)C(=O)OCC(C)(C)C2 [Compound A117]	100 to 1000 nM	100 to 1000	EC50 ([2]; Homo sapiens): < 5000 nM
CCn1c(-c2cccnc2[C@H](C)OC)c2c3cc(ccc31)-c1cc(O)cc(c1)C[C@H](NC(=O)[C@H](C(C)C)N(C)C(=O)C1CCN3CCOCC13)C(=O)N1CCC[C@H](N1)C(=O)OCC(C)(C)C2 (stereo partly shown) [Compound A123]	–	–	IC50 ([1]; KRAS G12C FRET IC50): 10 to 100 nM; EC50 ([2]; Homo sapiens): < 5000 nM
CCn1c(-c2cccnc2[C@H](C)OC)c2c3cc(ccc31)-c1csc(n1)C[C@H](NC(=O)[C@H](C(C)C)N(C)C(=O)N(C)C)C(=O)N1CCC[C@H](N1)C(=O)OCC(C)(C)C2 [Compound A136]	1000 to 10000 nM	–	–
CCn1c(-c2cccnc2[C@H](C)OC)c2c3cc(ccc31)-c1csc(n1)C[C@H](NC(=O)[C@H](C(C)C)N(C)C(=O)[C@@H]1OCC[C@@H]1C)C(=O)N1CCC[C@H](N1)C(=O)OCC(C)(C)C2 [Compound A143]	100 to 1000 nM	10 to 100	–
CCn1c(-c2cccnc2[C@H](C)OC)c2c3cc(ccc31)-c1cc(O)cc(c1)C[C@H](NC(=O)[C@H](C(C)C)N(C)C(=O)[C@H]1C[C@H]1C)C(=O)N1CCC[C@H](N1)C(=O)OCC(C)(C)C2 [Compound A146]	100 to 1000 nM	100 to 1000	–
CCn1c(-c2cccnc2[C@H](C)OC)c2c3cc(ccc31)-c1nc(cs1)C[C@H](NC(=O)[C@H](C(C)C)N(C)C(C)=O)C(=O)N1CCC[C@H](N1)C(=O)OCC(C)(C)C2 [Compound A152]	10 to 100 nM	10 to 100	EC50 ([2]; Homo sapiens): < 5000 nM
CCn1c(-c2cccnc2[C@H](C)OC)c2c3cc(ccc31)-c1cc(O)cc(c1)C[C@H](NC(=O)[C@H](C(C)C)N(C)C(=O)O[C@H]1CCOC1)C(=O)N1CCC[C@H](N1)C(=O)OCC(C)(C)C2 [Compound A209]	10 to 100 nM and < 10 nM	–	–
C=CC(=O)N1CC[C@]2(CCCN([C@H](C(=O)N[C@H]3Cc4cc(O)cc(c4)-c4ccc5c(c4)c(c(-c4ccccc4CCOC)n5CC)CC(C)(C)COC(=O)[C@@H]4CCCN(N4)C3=O)C(C)C)C2)C1 [Compound A217]	100 to 1000 nM and > 10000 nM	–	EC50 ([2]; Homo sapiens): < 5000 nM
CCn1c(-c2cccnc2[C@H](C)OC)c2c3cc(ccc31)-c1cc(O)cc(c1)C[C@H](NC(=O)[C@H](C(C)C)N(C)C(=O)C1NCCC13CC3)C(=O)N1CCC[C@H](N1)C(=O)OCC(C)(C)C2 (stereo partly shown) [Compound A228]	1000 to 10000 nM	> 10000	–
CCn1c(-c2cccnc2[C@H](C)OC)c2c3cc(ccc31)-c1csc(n1)C[C@H](NC(=O)[C@H](C(C)C)N(C)C(=O)[C@H]1CCCO1)C(=O)N1CCC[C@H](N1)C(=O)OCC(C)(C)C2 [Compound A238]	10 to 100 nM	10 to 100	–
CCn1c(-c2cccnc2[C@H](C)OC)c2c3cc(ccc31)-c1csc(n1)C[C@H](NC(=O)[C@H](C(C)C)N(C)C(=O)N1CCC13CN(C)C3)C(=O)N1CCC[C@H](N1)C(=O)OCC(C)(C)C2 [Compound A274]	1000 to 10000 nM	100 to 1000	–
CCn1c(-c2cccnc2[C@H](C)OC)c2c3cc(ccc31)-c1csc(n1)C[C@H](NC(=O)[C@H](C(C)C)N(C)C(=O)N1C[C@H]3CN(C)C[C@H]3C1)C(=O)N1CCC[C@H](N1)C(=O)OCC(C)(C)C2 [Compound A313]	1000 to 10000 nM	> 10000	–
CCn1c(-c2cccnc2[C@H](C)OC)c2c3cc(ccc31)-c1cc(O)cc(c1)C[C@H](NC(=O)[C@H](C(C)C)N(C)C(=O)[C@H]1CCN(C(=O)[C@H]3CCCN3)C1)C(=O)N1CCC[C@H](N1)C(=O)OCC(C)(C)C2 [Compound A378]	100 to 1000 nM	–	IC50 [3]: 1000 to 10000 nM
CCn1c(-c2cccnc2[C@H](C)OC)c2c3cc(ccc31)-c1cc(C#N)cc(c1)C[C@H](NC(=O)[C@H](C(C)C)N(C)C(C)=O)C(=O)N1CCC[C@H](N1)C(=O)OCC(C)(C)C2 [Compound A430]	100 to 1000 nM	10 to 100	–
CCn1c(-c2cccnc2[C@H](C)OC)c2c3cc(ccc31)C1=C[C@@H](O)CN(C1)C[C@H](NC(=O)[C@H]1[C@H](C)[C@@H]1C)C(=O)N1CCC[C@H](N1)C(=O)OCC(C)(C)C2 [Compound A441, (1R,2R,3S)—N-((2^3S,6^3S,4S)-1^1-ethyl-2^3-hydroxy-1^2-(2-((S)-1-methoxyethyl)pyridin-3-yl)-10,10-dimethyl-5,7-dioxo-2^1,2^2,2^3,2^6,6^1,6^2,6^3,6^4,6^5,6^6-decahydro-1^1H-8-oxa-1 (5,3)-indola-6 (1,3)-pyridazina-2 (5,1)-pyridinacycloundecaphane-4-yl)-2,3-dimethylcyclopropane-1-carboxamide]	1000 to 10000 nM	–	IC50 (KRAS G12D): 100 to 1000 nM; EC50 [2]: < 5000 nM
CCn1c(-c2cccnc2[C@H](C)OC)c2c3cc(ccc31)-c1csc(n1)C[C@H](NC(=O)[C@H](C(C)C)N(C)C(=O)N1CC3(CC(N(C)CCO)C3)C1)C(=O)N1CCC[C@H](N1)C(=O)OCC(C)(C)C2 [Compound A467]	1000 to 10000 nM	10 to 100	–
CCn1c(-c2cc(N3CCN(C)CC3)cnc2[C@H](C)OC)c2c3cc(ccc31)-c1cccc(c1)C[C@H](NC(=O)[C@H](C(C)C)N(C)C(=O)[C@@H]1OCC[C@@H]1c1ccccc1)C(=O)N1CCC[C@H](N1)C(=O)OCC(C)(C)C2 [Compound A562]	100 to 1000 nM	100 to 1000	–
CCn1c(-c2cccnc2[C@H](C)OC)c2c3cc(ccc31)-c1csc(n1)C[C@H](NC(=O)[C@H](C(C)C)N(C)C(=O)N1CC(C3CN(C)C3)C1)C(=O)N1CCC[C@H](N1)C(=O)OCC(C)(C)C2 [Compound A608]	100 to 1000 nM	10 to 100	–
